# Test results published in patent US11447486B2, “2-amino-benzimidazole derivatives and their use as 5-lipoxygenase and/or prostaglandin E synthase inhibitors” (INSTITUT PASTEUR KOREA, priority 2014, dated 2022).
# Assays:
# human 5-LOX = biological target: T1, human 5-LOX (Homo sapiens, UniProt P09917); assay: 5-LOX enzyme activity, fluorescence method (5-HPETE, H2DCFDA); assay type: biochemical; conditions: read-out: 5-LO (IC50)
# T1 construct: purchased Cayman 60402; host or cells: insect cells (lysate)
# T1 sequence (P09917 1-674): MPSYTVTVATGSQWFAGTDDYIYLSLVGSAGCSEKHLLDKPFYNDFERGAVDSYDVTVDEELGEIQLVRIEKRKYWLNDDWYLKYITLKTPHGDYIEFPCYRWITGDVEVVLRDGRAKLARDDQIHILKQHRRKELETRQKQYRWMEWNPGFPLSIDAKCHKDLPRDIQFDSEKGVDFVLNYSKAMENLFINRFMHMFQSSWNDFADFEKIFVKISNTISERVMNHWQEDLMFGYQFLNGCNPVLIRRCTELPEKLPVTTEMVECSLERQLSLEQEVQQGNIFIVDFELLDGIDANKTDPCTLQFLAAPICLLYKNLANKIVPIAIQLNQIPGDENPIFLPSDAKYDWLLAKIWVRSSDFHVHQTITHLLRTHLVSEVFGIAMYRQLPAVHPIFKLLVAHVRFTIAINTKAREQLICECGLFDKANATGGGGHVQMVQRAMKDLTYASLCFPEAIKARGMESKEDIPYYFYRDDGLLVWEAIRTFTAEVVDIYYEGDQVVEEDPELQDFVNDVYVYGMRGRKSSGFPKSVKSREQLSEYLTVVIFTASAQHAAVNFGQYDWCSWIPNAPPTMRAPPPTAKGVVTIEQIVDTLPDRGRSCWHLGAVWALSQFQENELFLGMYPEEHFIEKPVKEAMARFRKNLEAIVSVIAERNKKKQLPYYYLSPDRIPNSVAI
# How it was run: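 Fluorescence-based read-out, run entirely at room temperature. Enzyme mixture was exposed to a dose range of compound from 0.5 nM to 10 uM for 5 min before ATP and arachidonic acid were added to final levels of 100 uM and 3 uM.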
# [1] = tested on: Rat basophilic leukemia (RBL) cells; assay: LTB4 secretion assay in RBL (rat basophilic leukemia cells); assay type: cell-based; conditions: Rattus norvegicus, RBL
# How it was run: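 LTB4 released into supernatant was measured by EIA after 10 min at 37 °C with arachidonic acid (2.5 uM final) and calcium ionophore A23187 (5 uM final). Before stimulation, cells plated 2×10^4/well overnight received compound doses (5 nM to 100 uM) for 15 min in 0.5% FBS medium.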
# Rat whole blood (RWB) = assay: LTB4 secretion assay in RWB (rat whole blood); assay type: cell-based; conditions: Rattus norvegicus
# How it was run: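 LTB4 release was measured by EIA in supernatants of pooled, sodium heparin rat blood (male Sprague Dawley, 6-9 weeks) diluted 1:1 with RPMI. Compounds (2.5 nM to 50 uM) were added 15 min before A23187 (10 uM final), with 10 min stimulation at 37 °C before ice-cold PBS quench.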
SMILES,IC50 (human 5-LOX) [µM],EC50 [1] [µM],melting point [°C],EC50 (Rat whole blood (RWB)) [µM]
Cn1c(NCc2ccc(Oc3ccc(F)cn3)cc2)nc2ccc(N)cc21 [Compound 301],< 1,< 10,121.4 to 124.6,–
Nc1ccc2[nH]c(NCc3ccc(N4CCC(c5ccc(Cl)cc5)CC4)cc3)nc2c1 [Compound 115],< 1,> 20,> 220,–
Cn1c(NCc2ccc(OCc3ccc(Cl)cn3)cc2)nc2ccc(N)cc21 [Compound 314],< 1,10 to 20,96.6 to 100.9,–
CC(C)(C)c1ccc(Oc2ccc(CNc3nc4cc(N)ccc4[nH]3)cc2)cc1 [Compound 117],< 1,10 to 20,> 207.2,–
Nc1ccc2[nH]c(NCc3ccc(S(=O)(=O)Nc4ccc(Cl)cc4)cc3)nc2c1 [Compound 151],< 1,> 20,> 200,–
Cn1c(NCc2ccc(Oc3ccc4c(Cl)cccc4n3)cc2)nc2ccc(NC3COC3)cc21 [Compound 425],< 1,< 10,102.3 to 107.3,–
Nc1ccc2[nH]c(N3CCC(Oc4ccc(F)cc4)CC3)nc2c1 [Compound 34],< 1,10 to 20,193.3 to 205,–
Cc1cnn(-c2nc3cc(N4CCN(c5ccc(F)cc5)CC4)ccc3[nH]2)c1 [Compound 25],> 10,–,> 220,–
Cn1c(NCc2ccc(Oc3ncc(Cl)cn3)cc2)nc2c(F)cc(NC3COC3)cc21 [Compound 554],< 1,10 to 20,–,< 10
Cn1c(NCc2ccc(Oc3ncc(C(F)(F)F)cn3)cc2)nc2ccc(N)cc21 [Compound 373],< 1,< 10,–,< 10
Nc1ccc2[nH]c(NCc3ccc(Sc4ccc(Cl)cc4)cc3)nc2c1 [Compound 92],< 1,< 10,–,< 10
CN(C)c1nc2ccc(NCc3ccc(C4(C#N)CCOCC4)cc3)cc2[nH]1 [Compound 241],< 1,< 10,–,> 20
CCn1c(NCc2ccc(Oc3ncc(Cl)cn3)cc2)nc2c(F)cc(NC3COC3)cc21 [Compound 555],< 1,10 to 20,–,10 to 20
CCn1c(NCc2ccc(Oc3ncc(C(F)(F)F)cn3)cc2)nc2ccc(Nc3n[nH]c(C)c3Cl)cc21 [Compound 508],1 to 10,< 10,–,< 10
Cn1c(NCCOc2ccc(OC(F)(F)F)c(Cl)c2)nc2ccc(N)cc21 [Compound 58],< 1,< 10,–,> 20
Cn1c(NCc2ccc(Oc3ncc(C#N)cn3)cc2)nc2ccc(NC3COC3)cc21 [Compound 368],< 1,< 10,–,< 10
CCC(Nc1nc2ccc(NC3COC3)cc2n1C)c1ccc(Oc2ccc(Cl)cn2)cc1 (centres unmarked) [Compound 275],< 1,< 10,–,< 10
Cn1c(NCc2ccc(Oc3ccc(Cl)nc3)cc2)nc2ccc(NC3COC3)cc21 [Compound 281],< 1,< 10,–,< 10
CC(CC(F)(F)F)Oc1ccc(CNc2nc3ccc(N)cc3[nH]2)cc1 (centres unmarked) [Compound 172],< 1,< 10,–,10 to 20
Cn1nc(Nc2ccc3nc(NCc4ccc(Oc5ncc(Cl)cn5)cc4F)n(C)c3c2)cc1C(F)(F)F [Compound 503],< 1,< 10,–,< 10

SMILES,IC50 (human 5-LOX) [µM],EC50 [1] [µM],melting point [°C],EC50 (Rat whole blood (RWB)) [µM]
Nc1ccc2[nH]c(NCc3ccc(S(=O)(=O)c4ccc(Cl)cc4)cc3)nc2c1 [Compound 129],< 1,< 10,–,> 20
CCn1c(NCc2ccc(Oc3ncc(C(F)(F)F)cn3)cc2)nc2ccc(Nc3ccn(C)n3)cc21 [Compound 525],< 1,< 10,–,< 10
Nc1ccc2[nH]c(NCc3cccc(Oc4ccc(Cl)cc4)c3)nc2c1 [Compound 101],< 1,< 10,–,< 10
CC(C)(O)CNc1nc2ccc(N)cc2n1Cc1ccc(Oc2ccc(Cl)cc2)cc1 [Compound 165],< 1,< 10,–,< 10
Nc1ccc2nc(NCCOc3ccc(OC(F)(F)F)cc3)[nH]c2c1 [Compound 62],< 1,< 10,–,< 10
CCn1c(NCc2ccc(Oc3ncc(C(F)(F)F)cn3)cc2F)nc2ccc(Nc3cc(C(F)(F)F)n(C)n3)cc21 [Compound 527],> 10,< 10,–,< 10
COc1nc(Oc2ccc(CNc3nc4ccc(NC5COC5)cc4n3C)cc2)ncc1Cl [Compound 459],< 1,10 to 20,–,10 to 20
CCn1c(NCc2ccc(Oc3cnc(C(F)(F)F)cn3)cc2)nc2ccc(Nc3cc(C(F)(F)F)n(C)n3)cc21 [Compound 523],> 10,< 10,–,10 to 20
Cn1c(NCCOc2ccc(OC(F)(F)F)cc2)nc2ccc(N)cc21 [Compound 52],< 1,< 10,–,< 10
Cn1c(NCc2c(F)cc(Oc3ncc(Cl)cn3)cc2F)nc2ccc(NC3COC3)cc21 [Compound 431],< 1,< 10,–,< 10
Cn1nc(Nc2ccc3nc(NCc4ccc(Oc5ncc(C(F)(F)F)cn5)cc4)n(C)c3c2)cc1C(F)(F)F [Compound 519],> 10,< 10,–,< 10
CCC(Nc1nc2ccc(NC3COC3)cc2n1C)c1ccc(Oc2ncc(C(F)(F)F)cn2)cc1 (centres unmarked) [Compound 547],< 1,< 10,–,< 10
Nc1ccc2[nH]c(NCc3ccc(Oc4ccc(Cl)nc4)cc3)nc2c1 [Compound 136],< 1,< 10,–,< 10
Cn1nc(C(F)(F)F)cc1Nc1ccc2nc(NCc3ccc(Oc4ncc(Cl)cn4)cc3)n(C)c2c1 [Compound 526],1 to 10,< 10,–,< 10
Cn1c(NCc2ccc(Oc3ncc(Br)cn3)cc2)nc2ccc(NC3COC3)cc21 [Compound 362],< 1,10 to 20,–,< 10
Cn1c(NCc2ccc(Oc3cnc(Cl)cn3)cc2)nc2ccc(NC3COC3)cc21 [Compound 296],< 1,< 10,–,< 10
Clc1ccc(Oc2ccc(CNc3nc4cc(NC5COC5)ccc4[nH]3)cc2)cc1 [Compound 125],< 1,< 10,–,< 10
Cn1c(NCc2ccc(Oc3ncc(Cl)cn3)cc2)nc2ccc(Nc3cc[nH]n3)cc21 [Compound 450],< 1,< 10,–,< 10
COCCNc1nc2ccc(N3CCC(Oc4ccc(OC(F)(F)F)cc4)C3)cc2[nH]1 (centres unmarked) [Compound 148],< 1,< 10,–,> 20
